Data reported in EP0238178B1, “Novel derivatives of erythromycylamine” (ELI LILLY AND COMPANY, priority 1986, dated 1987).
≈ marks a conversion by molar mass, not a printed value. Read-outs that look alike come from different tables or passages of the source.

Key:
[1] = tested on: Staphylococcus aureus X1.1; assay: MIC, standard agar-dilution assay; format: cell-based; conditions: read-out: MIC
[2] = tested on: Streptococcus sp. group D 2041; assay: MIC, standard agar-dilution assay; format: cell-based; conditions: read-out: MIC
[3] = tested on: Klebsiella pneumoniae X68; assay: MIC, standard agar-dilution assay; format: cell-based; conditions: read-out: MIC
[4] = tested on: Staphylococcus epidermidis 222; assay: MIC, standard agar-dilution assay; format: cell-based
[5] = tested on: Staphylococcus aureus S13E; assay: MIC, standard agar-dilution assay; format: cell-based
[6] = tested on: Staphylococcus epidermidis EPI1; assay: MIC, standard agar-dilution assay; format: cell-based
Text: (§1) In addition to excellent in vitro activity against erythromycin-sensitive bacteria, several members of this new series have shown in vitro activity against erythromycin-resistant strains. These include strains which are inducibly-resistant to erythromycin (S.. aureus V41 and X400 and S. epidermidis EPI1) and even strains which are constitutively-resistant (S. epidermidis 270).

[7] = tested on: Staphylococcus aureus X400; assay: MIC, standard agar-dilution assay; format: cell-based; conditions: Staphylococcus aureus X400, Methicillin-resistant strain, inducibly-resistant to erythromycin; read-out: MIC
Text: as §1

[8] = tested on: Staphylococcus aureus V41; assay: MIC, standard agar-dilution assay; format: cell-based; conditions: Staphylococcus aureus V41, Penicillin-resistant strain, inducibly-resistant to erythromycin; read-out: MIC
Text: as §1

[9] = tested on: Haemophilus influenzae 76; assay: MIC, standard agar-dilution assay; format: cell-based; conditions: Haemophilus influenzae 76, Ampicillin-resistant strain; read-out: MIC
[10] = tested on: Streptococcus pneumoniae Park I; assay: MIC, standard agar-dilution assay; format: cell-based; conditions: read-out: MIC
[11] = tested on: Streptococcus pyogenes C203; assay: MIC, standard agar-dilution assay; format: cell-based; conditions: read-out: MIC
[12] = tested on: Staphylococcus aureus; assay: Experimental bacterial infection in mice, ED50; format: in vivo; conditions: Staphylococcus aureus, two doses, dose protecting 50% of animals
Method: (§2) The new derivatives of this invention have also shown in vivo antimicrobial activity against experimental bacterial infections. When two doses of test compound were administered to mice in experimental infections, the activity observed was measured as an EDso value [effective dose in mg/kg to protect 50% of the test animals: see Warren Wick, et al., J. Bacteriol. 81, 233-235 (1961)].

[13] = tested on: Streptococcus pneumoniae; assay: Experimental bacterial infection in mice, ED50; format: in vivo; conditions: Streptococcus pneumoniae, po, two doses, dose protecting 50% of animals, read-out: Oral ED50
Method: as §2

[14] = tested on: Streptococcus pyogenes; assay: Experimental bacterial infection in mice, ED50; format: in vivo; conditions: Streptococcus pyogenes, po, two doses, dose protecting 50% of animals, read-out: Oral ED50
Method: as §2

[15] = tested on: Escherichia coli EC14; assay: MIC, standard agar-dilution assay; format: cell-based; conditions: read-out: MIC
[16] = tested on: Streptococcus sp. group D X66; assay: MIC, standard agar-dilution assay; format: cell-based
[17] = tested on: Haemophilus influenzae C.L.; assay: MIC, standard agar-dilution assay; format: cell-based; conditions: Ampicillin-sensitive strain, read-out: MIC
[18] = Streptococcus sp. group D X66, read-out: MIC

Row | Compound | MIC [1] | MIC [2] | MIC [3] | MIC [4] | MIC [5] | MIC [6] | MIC [7] | MIC [8] | MIC [9] | MIC [10] | MIC [11] | ED50 ([12]; po, read-out: Oral ED50) | ED50 [13] | ED50 [14] | MIC [15] | MIC ([16]; Streptococcus) | MIC [17] | MIC ([4]; read-out: MIC) | ED50 ([12]; sc, subcutaneous, read-out: Subcutaneous ED50) | MIC [16, 18]
1 | CCCN1CO[C@@H]2[C@@H](C)[C@@H]1[C@H](C)C[C@@](C)(O)[C@H](O[C@@H]1O[C@H](C)C[C@H](N(C)C)[C@H]1O)[C@@H](C)[C@H](O[C@H]1C[C@@](C)(OC)[C@@H](O)[C@H](C)O1)[C@@H](C)C(=O)O[C@H](CC)[C@@]2(C)O [Compound 59] | 0.25 µg/mL (≈ 0.317 µM) | 1 µg/mL (≈ 1.27 µM) | 128 µg/mL (≈ 162 µM) | 0.125 µg/mL (≈ 0.158 µM) | 0.125 µg/mL (≈ 0.158 µM) | > 128 µg/mL | 8 µg/mL (≈ 10.1 µM) | 8 µg/mL (≈ 10.1 µM) | 2 µg/mL (≈ 2.53 µM) | < 0.008 µg/mL | < 0.008 µg/mL | 7.2 mg/kg | 5 mg/kg | 4.8 mg/kg | 32 µg/mL (≈ 40.6 µM) | 0.125 µg/mL (≈ 0.158 µM) | 1 µg/mL (≈ 1.27 µM) | – | – | –
2 | CC[C@H]1OC(=O)[C@H](C)[C@@H](O[C@H]2C[C@@](C)(OC)[C@@H](O)[C@H](C)O2)[C@H](C)[C@@H](O[C@@H]2O[C@H](C)C[C@H](N(C)C)[C@H]2O)[C@](C)(O)C[C@@H](C)[C@H]2[C@H](C)[C@@H](OCN2C2CCCC2)[C@]1(C)O [Compound 60] | 1 µg/mL (≈ 1.23 µM) | 8 µg/mL (≈ 9.81 µM) | 64 µg/mL (≈ 78.5 µM) | – | 2 µg/mL (≈ 2.45 µM) | > 128 µg/mL | > 128 µg/mL | > 128 µg/mL | 4 µg/mL (≈ 4.91 µM) | 0.06 µg/mL (≈ 0.0736 µM) | 0.125 µg/mL (≈ 0.153 µM) | > 50 mg/kg | 9 mg/kg | 10.2 mg/kg | 64 µg/mL (≈ 78.5 µM) | – | 4 µg/mL (≈ 4.91 µM) | 1 µg/mL (≈ 1.23 µM) | 5 mg/kg | 0.5 µg/mL (≈ 0.613 µM)
3 | CC[C@H]1OC(=O)[C@H](C)[C@@H](O[C@H]2C[C@@](C)(OC)[C@@H](O)[C@H](C)O2)[C@H](C)[C@@H](O[C@@H]2O[C@H](C)C[C@H](N(C)C)[C@H]2O)[C@](C)(O)C[C@@H](C)[C@H]2[C@H](C)[C@@H](OCN2Cc2ccccc2)[C@]1(C)O [Compound 62, 9-Deoxo-9-[(benzyl)amino]-9,11-(N.O)-cyclic Methylene Adduct of Erythromycin] | 1 µg/mL (≈ 1.19 µM) | 4 µg/mL (≈ 4.78 µM) | > 128 µg/mL | – | 1 µg/mL (≈ 1.19 µM) | 64 µg/mL (≈ 76.5 µM) | 128 µg/mL (≈ 153 µM) | 64 µg/mL (≈ 76.5 µM) | 4 µg/mL (≈ 4.78 µM) | 0.06 µg/mL (≈ 0.0717 µM) | 0.125 µg/mL (≈ 0.149 µM) | > 50 mg/kg | 15.2 mg/kg | 15.6 mg/kg | > 128 µg/mL | – | 4 µg/mL (≈ 4.78 µM) | 0.5 µg/mL (≈ 0.597 µM) | – | 0.5 µg/mL (≈ 0.597 µM)
4 | CC[C@H]1OC(=O)[C@H](C)[C@@H](O[C@H]2C[C@@](C)(OC)[C@@H](O)[C@H](C)O2)[C@H](C)[C@@H](O[C@@H]2O[C@H](C)C[C@H](N(C)C)[C@H]2O)[C@](C)(O)C[C@@H](C)[C@H](N(C)C)[C@H](C)[C@@H](O)[C@]1(C)O [Compound 69, 9-Deoxo-9-(dimethylamino)erythromycin] | 4 µg/mL (≈ 5.24 µM) | 4 µg/mL (≈ 5.24 µM) | > 128 µg/mL | – | 2 µg/mL (≈ 2.62 µM) | > 128 µg/mL | 64 µg/mL (≈ 83.9 µM) | 64 µg/mL (≈ 83.9 µM) | 8 µg/mL (≈ 10.5 µM) | – | 0.25 µg/mL (≈ 0.328 µM) | > 43.8 mg/kg | 43.5 mg/kg | 21.9 mg/kg | 128 µg/mL (≈ 168 µM) | – | 2 µg/mL (≈ 2.62 µM) | 2 µg/mL (≈ 2.62 µM) | – | 0.5 µg/mL (≈ 0.655 µM)
5 | CC[C@H]1OC(=O)[C@H](C)[C@@H](O[C@H]2C[C@@](C)(OC)[C@@H](O)[C@H](C)O2)[C@H](C)[C@@H](O[C@@H]2O[C@H](C)C[C@H](N(C)C)[C@H]2O)[C@](C)(O)C[C@@H](C)[C@H](N(C)C(C)C)[C@H](C)[C@@H](O)[C@]1(C)O [Compound 70, 9-Deoxo-9-[(N-methyl-N-isopropyl)amino]erythromycin] | 8 µg/mL (≈ 10.1 µM) | 32 µg/mL (≈ 40.5 µM) | > 128 µg/mL | – | 8 µg/mL (≈ 10.1 µM) | > 128 µg/mL | > 128 µg/mL | > 128 µg/mL | 32 µg/mL (≈ 40.5 µM) | 0.5 µg/mL (≈ 0.632 µM) | 0.5 µg/mL (≈ 0.632 µM) | – | – | – | > 128 µg/mL | – | 32 µg/mL (≈ 40.5 µM) | 8 µg/mL (≈ 10.1 µM) | – | 2 µg/mL (≈ 2.53 µM)
6 | CC[C@H]1OC(=O)[C@H](C)[C@@H](O[C@H]2C[C@@](C)(OC)[C@@H](O)[C@H](C)O2)[C@H](C)[C@@H](O[C@@H]2O[C@H](C)C[C@H](N(C)C)[C@H]2O)[C@](C)(O)C[C@@H](C)[C@H](N(C)C2CCCCC2)[C@H](C)[C@@H](O)[C@]1(C)O [Compound 71, 9-Deoxo-9-[(N-cyclohexyl-N-methyl)amino]erythromycin] | 16 µg/mL (≈ 19.3 µM) | 128 µg/mL (≈ 154 µM) | > 128 µg/mL | – | 16 µg/mL (≈ 19.3 µM) | > 128 µg/mL | > 128 µg/mL | > 128 µg/mL | 32 µg/mL (≈ 38.5 µM) | 0.125 µg/mL (≈ 0.15 µM) | 1 µg/mL (≈ 1.2 µM) | > 50 mg/kg | > 50 mg/kg | > 50 mg/kg | > 128 µg/mL | – | 32 µg/mL (≈ 38.5 µM) | 8 µg/mL (≈ 9.63 µM) | – | 8 µg/mL (≈ 9.63 µM)
